Measured values as given in US20190151266A1, “PHARMACEUTICAL COMPOSITION FOR TREATING OR PREVENTING BURN INJURIES” (priority 2016, published 2019).

How the values were obtained:
TRPV ion channels = experiment: TRPV ion channel activity: 2-APB-induced intracellular calcium change in nociceptive sensory cells (Fluo-4-AM); type: cell-based, white rats
Procedure: After fl 1 nociceptive sensory cell lines in white rats incubated with the compound of Formula 1 for 24 hours were pretreated, TRPV ion channel activities were measured. The fl 1 cell lines were treated with 2-APB (2-aminoethoxydiphenyl borate) as a pre-activator for TRPV ion channels, and intracellular calcium changes, which are triggered in response to the 2-APB treatment, were evaluated using a Fluo-4-AM fluorescent dye on a real time basis.

f11 neuron cell lines = experiment: Inhibitory efficacy of fibroblast cell proliferation; type: cell-based; conditions: f11 neuron cell lines treated for 72 hours; compared to control groups; FIG. 10
Procedure: After f11 neuron cell lines were treated with the compound of Formula 1 for 72 hours, the extents of cell differentiation were first compared/evaluated (see FIG. 10). […] Since fibroblast cell proliferation accompanies excessive collagen synthesis to make up for the dermis damaged by skin injury, scars can be left even after the damage recovery. Therefore, scar prevent or treating efficacy can be exerted by inhibiting the fibroblast proliferation.

Compound | intracellular calcium level after treatment with TRPV pre-activator (TRPV ion channels; fl 1 cell lines, transient within 20 seconds, reverted to base level in about 5 minutes) | fibroblast cell proliferation and differentiation inhibitory efficacy (f11 neuron cell lines) | increase in the intracellular calcium level induced by 2-APB (TRPV ion channels; fl 1 cell lines pre-treated with the compound for 24 hours, FIG. 9)
NCCOB(c1ccccc1)c1ccccc1 [Formula 2-APB, 2-aminoethoxydiphenyl borate, reference compound] | sharp increase in the intracellular calcium level |  | 
CC(C)c1ccc2c(c1)C=C[C@H]1[C@](C)(C(=O)O)CCC[C@]21C [Formula 1, abieta-6,8,11,13-tetraaen-18-oic acid] |  | improved fibroblast cell proliferation and differentiation inhibitory efficacy | strongly inhibited
